Target: T1, human MCP-1 receptor (Homo sapiens, UniProt P41597)
T1 construct: expressed in transfected cells; host or cells: CHO cells, transformant CHO(MCR); FERM BP-5446; IFO 50461
Assay: Determination of inhibitory activity on MCP-1 receptor (125I-MCP-1 binding to CHO cells expressing human MCP-1 receptor)
Settings: Test Compound 1 μM, 125I-human recombinant MCP-1 100 pM, room temperature 40 minutes
Experimental: According to a method described in Working Example 1 of JP-A-238688/1997, human MCP-1 receptor gene was prepared. Said gene was inserted to plasmid pMCR, which was introduced into CHO cell. The resultant transformant [CHO(MCR); FERM BP-5446; IFO 50461] was used for the following experiment.
On 96 well culture plate (Packard Instrument Company), 7×10^4 cell/well of CHO cells expressing human MCP-1 receptor were inoculated, and the cells were cultivated at 37° C., overnight. The medium was removed by means of suction. To the residue were added a buffer solution (D-MEM containing 0.5% BSA and 20 mM HEPES; pH7.4), Test Compound (1 μM) and ^125I-human recombinant MCP-1 (Amersham; final concentration: 100 pM), and the mixture was allowed to react at room temperature for 40 minutes. The buffer solution was removed by means of suction and washed twice with PBS. To the residue was added MICROSCINT-20 (Packard Instrument Company), radioactivity of ^125I (cpm) was determined with Topcount (Packard).
The count number (cpm) (non-specific binding) of ^125I which binds to CHO cells (mock) having a vector was taken from the count number (cpm) of ^125I which binds to CHO cells expressing human MCP-1 receptor to obtain the amended count number, which was converted into 100%, and inhibition rate of Test Compound (whose number is referred to in the following Examples) against MCP-1 binding to its receptor was calculated.

T1 sequence (P41597 whole entry): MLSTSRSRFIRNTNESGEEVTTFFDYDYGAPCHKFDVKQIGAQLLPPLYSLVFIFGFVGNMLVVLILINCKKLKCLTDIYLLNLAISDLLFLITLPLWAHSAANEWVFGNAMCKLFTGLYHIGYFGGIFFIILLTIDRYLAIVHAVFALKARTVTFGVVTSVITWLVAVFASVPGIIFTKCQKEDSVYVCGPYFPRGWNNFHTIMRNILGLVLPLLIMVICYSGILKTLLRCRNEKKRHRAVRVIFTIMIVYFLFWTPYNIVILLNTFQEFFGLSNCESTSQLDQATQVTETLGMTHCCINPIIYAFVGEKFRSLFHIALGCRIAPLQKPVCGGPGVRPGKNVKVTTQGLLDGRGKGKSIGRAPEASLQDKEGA

SMILES	Inhibition Rate (%) against MCP-1 binding to its receptor
Cc1ccc(-c2ccc3c(c2)C=C(C(=O)Nc2ccc(C[N+]4(C)CCCCC4)cc2)CC3)cc1 [Compound 16, 1-methyl-1-[4-[7—(4-methylphenyl)-3,4-dihydronaphthalene-2-carboxamido]benzyl]piperidinium iodide]	89%

System: not given
Assay: not given
Settings: not given

SMILES	melting point
CN(Cc1ccc(NC(=O)/C=C/c2ccc(-c3ccc(C(C)(C)C)cc3)s2)cc1)C1CCOCC1 [Compound 276, (E)-3-[5-(4-tert-butylphenyl)thiophen-2-yl]-N-[4-[N-methyl-N-(tetrahydropyran-4-yl)aminomethyl]phenyl]acrylamide]	216 to 220 °C
Cc1ccc(-c2cc3ccc(C(=O)Nc4ccc(CN(C)C5CCOCC5)cc4)cc3o2)cc1 [Compound 278, 2-(4-methylphenyl)-N-[4-[N-methyl-N-(tetrahydropyran-4-yl)aminomethyl]phenyl]benzofuran-6-carboxamide]	224 to 227 °C
COc1ccc(-c2ccc3c(c2)C=C(C(=O)Nc2ccc(CN(C)C4CCOCC4)cc2)CCS3)cc1 [Compound 282, 7-(4-methoxyphenyl)-N-[4-[N-methyl-N-(tetrahydropyran-4-yl)aminomethyl]phenyl]-2,3-dihydro-1-benzothiepine-4-carboxamide]	162 to 164 °C
COc1ccc(-c2ccc3c(c2)C=C(C(=O)Nc2ccc(CN(C)C4CCC5(CC4)OCCO5)cc2)CCS3)cc1 [Compound 283, N-[4-[N-(4,4-ethylenedioxy-cyclohexyl)-N-methylaminomethyl]phenyl]-7-(4-methoxy-phenyl)-2,3-dihydro-1-benzothiepine-4-carboxamide]	198 to 201 °C
COc1ccc(-c2ccc3c(c2)C=C(C(=O)Nc2ccc(CN(C)C4CCC(=O)CC4)cc2)CCS3)cc1 [Compound 284, 7-(4-methoxyphenyl)-N-[4-[N-methyl-N-(4-oxocyclohexyl)aminomethyl]phenyl]-2,3-dihydro-1-benzothiepine-4-carboxamide]	133 to 139 °C
CN(Cc1ccc(NC(=O)C2=Cc3cc(-c4ccc(N5CCOCC5)cc4)ccc3SCC2)cc1)C1CCOCC1 [Compound 285, N-[4-[N-methyl-N-(tetrahydropyran-4-yl)aminomethyl]phenyl]-7-(4-morpholinophenyl)-2,3-dihydro-1-benzothiepine-4-carboxamide]	255 to 259 °C
CN(Cc1ccc(NC(=O)C2=Cc3cc(-c4ccc5c(c4)OCO5)ccc3SCC2)cc1)C1CCOCC1 [Compound 286, 7-(3,4-methylenedioxyphenyl)-N-[4-[N-methyl-N-(tetrahydropyran-4-yl)aminomethyl]phenyl]-2,3-dihydro-1-benzothiepine-4-carboxamide]	193 to 194 °C
CCOc1ccc(-c2ccc3c(c2)C=C(C(=O)Nc2ccc(CN(C)C4CCC5(CC4)OCCO5)cc2)CCO3)cc1 [Compound 287, 7-(4-ethoxyphenyl)-N-[4-[N-(4,4-ethylenedioxycyclohexyl)-N-methylaminomethyl]-phenyl]-2,3-dihydro-1-benzoxepine-4-carboxamide]	172 to 174 °C
Cc1ccc(S(=O)(=O)N2CCC(c3cccc4c3CCCC(C(=O)Nc3ccc(CN(C)C5CCOCC5)cc3)=C4)CC2)cc1 [Compound 289, 4-[1-(4-methylphenylsulfonyl)piperidin-4-yl]-N-(4-(N-methyl-N-(tetrahydropyran-4-yl)aminomethyl]phenyl]-6,7-dihydro-5H-benzocycloheptene-8-carboxamide]	175 to 176 °C
Cc1ccc(-c2ccc3c(c2)C=C(C(=O)Nc2ccc(CN(C)C4CCOCC4)cc2)CCO3)s1 [Compound 290, N-[4-[N-methyl-N-(tetrahydropyran-4-yl)amino-methyl]phenyl]-7-(5-methyl-2-thienyl)-2,3-dihydro-1-benzoxepine-4-carboxamide]	129 to 130 °C
CN(Cc1ccc(NC(=O)C2=Cc3cc(-c4ccsc4)ccc3OCC2)cc1)C1CCOCC1 [Compound 291, N-[4-[N-methyl-N-(tetrahydropyran-4-yl)aminomethyl]phenyl]-7-(3-thienyl)-2,3-dihydro-1-benzoxepine-4-carboxamide]	194 to 195 °C
Cc1csc(-c2ccc3c(c2)C=C(C(=O)Nc2ccc(CN(C)C4CCOCC4)cc2)CCO3)c1 [Compound 292, N-[4-[N-methyl-N-(tetra-hydropyran-4-yl)aminomethyl]phenyl]-7-(4-methyl-2-thienyl)-2,3-dihydro-1-benzoxepine-4-carboxamide]	147 to 148 °C
CN1CCC(C(=O)Nc2ccc(CN(C)C3CCOCC3)cc2)=Cc2cc(-c3ccc(C(F)(F)F)cc3)ccc21 [Compound 308, 1-methyl-N-[4-[[N-methyl-N-(tetrahydropyran-4-yl)amino]-methyl]phenyl]-7-(4-trifluoromethylphenyl)-2,3-dihydro-1-benzoazepine-4-carboxamide]	187.5 to 188.5 °C
COCCN(CCOC)Cc1ccc(NC(=O)C2=Cc3cc(-c4ccc(C)cc4)ccc3OCC2)cc1 [Compound 311, N-(4-((N,N-bis(2-methoxyethyl)amino)methyl)phenyl)-7-(4-methylphenyl)-2,3-dihydro-1-benzoxepine-4-carboxamide]	110 to 112 °C
CCOCCCN(C)Cc1ccc(NC(=O)C2=Cc3cc(-c4ccc(C)cc4)ccc3OCC2)cc1 [Compound 312, N-(4-((N-(3-ethoxypropyl)-N-methylamino)methyl)phenyl)-7-(4-methylphenyl)-2,3-dihydro-1-benzoxepine-4-carboxamide]	119 to 122 °C
COCC(COC)N(C)Cc1ccc(NC(=O)C2=Cc3cc(-c4ccc(C)cc4)ccc3OCC2)cc1 [Compound 313, N-(4-((N-(1,3-dimethoxypropan-2-yl)-N-methylamino)methyl)phenyl)-7-(4-methylphenyl)-2,3-dihydro-1-benzoxepine-4-carboxamide]	128 to 132 °C
COCCN(C)Cc1ccc(NC(=O)C2=Cc3cc(-c4ccc(C)cc4)ccc3OCC2)cc1 [Compound 314, N-(4-((N-(2-methoxyethyl)-N-methylamino)methyl)phenyl)-7-(4-methylphenyl)-2,3-dihydro-1-benzoxepine-4-carboxamide]	121 to 122 °C
CN1CCC(C(=O)Nc2ccc(CN(C)C3CCOCC3)cc2)=Cc2cc(-c3ccc(OC(F)(F)F)cc3)ccc21 [Compound 315, 1-methyl-N-[4-[[N-methyl-N-(tetrahydro-2H-pyran-4-yl)amino]methyl]phenyl]-7-(4-trifluoromethoxyphenyl)-2,3-dihydro-1-benzazepine-4-carboxamide]	182 to 183 °C
CN1CCC(C(=O)Nc2ccc(CN(C)C3CCOCC3)cc2)=Cc2cc(-c3ccc(N4CCCCC4)cc3)ccc21 [Compound 316, 1-methyl-N-[4-[[N-methyl-N-(tetrahydro-2H-pyran-4-yl)amino]methyl]-phenyl]-7-[4-(1-piperidinyl)phenyl]-2,3-dihydro-1-benzazepine-4-carboxamide]	202 to 204 °C
Cc1ccc(-c2ccc3c(c2)C=C(C(=O)Nc2ccc(CN(C)C4CCOCC4)cc2)CCN3C=O)cc1 [Compound 317, 1-formyl-7-(4-methylphenyl)-N-[4-[[N-methyl-N-(tetrahydro-2H-pyran-4-yl)amino]methyl]phenyl]-2,3-dihydro-1-benzazepine-4-carboxamide]	229 to 230.5 °C
CCOCCCN(C)Cc1ccc(NC(=O)C2=Cc3cc(-c4ccc(OCC)cc4)ccc3N(C)CC2)cc1 [Compound 319, N-(4-((N-(3-ethoxypropyl)-N-methylamino)methyl)phenyl)-7-(4-ethoxyphenyl)-1-methyl-2,3-dihydro-1-benzazepine-4-carboxamide]	129 to 131 °C
CCSc1ccc(-c2ccc3c(c2)C=C(C(=O)Nc2ccc(CN(C)C4CCOCC4)cc2)CCN3C)cc1 [Compound 320, 7-(4-ethylthiophenyl)-1-methyl-N-[4-[[N-methyl-N-(tetrahydro-2H-pyran-4-yl)amino]methyl]phenyl]-2,3-dihydro-1-benzazepine-4-carboxamide]	139 to 141 °C
Cc1ccc(-c2ccc3c(c2)C=C(C(=O)Nc2ccc(CN(C)C4CCOCC4)cc2)CCN3S(=O)(=O)C(F)(F)F)cc1 [Compound 321, 7-(4-methylphenyl)-N-[4-[[N-methyl-N-(tetrahydro-2H-pyran-4-yl)amino]methyl]-phenyl]-1-[(trifluoromethyl)sulfonyl]-2,3-dihydro-1-benzazepine-4-carboxamide]	185 to 187 °C
Cc1ccc(-c2ccc3c(c2)C=C(C(=O)Nc2ccc(CNc4ccccn4)cc2)CCO3)cc1 [Compound 322, N-[4-[(pyrid-2-yl)aminomethyl]phenyl]-7-(4-methylphenyl)-2,3-dihydro-1-benzoxepine-4-carboxamide]	189 to 190 °C
Cc1ccc(-c2ccc3c(c2)C=C(C(=O)Nc2ccc(CP4(=O)OCCCO4)cc2)CCO3)cc1 [Ref Ex 51, 2—(4—(7—(4-methylphenyl)-2,3-dihydro-1-benzoxepin-4-carbonylamino)benzyl)-1,3,2-dioxaphosphorinane-2-oxide]	268 to 269 °C
